Data on 19 molecules can be found in ChEMBL document CHEMBL3351683, “Synthesis of lantadene analogs with marked in vitro inhibition of lung adenocarcinoma and TNF-α induced nuclear factor-kappa B (NF-κB) activation” (Bioorg Med Chem Lett, 2014).

The subject of one series is A549. The series is described as follows: Cytotoxicity against human A549 cells after 48 hrs by MTT assay. Type of series: functional, cell-based. To be noted: A549, 48 h.
Series [1] is described as follows: Metabolic stability in 80% human plasma assessed as compound remaining at 5 mg/ml at 30 mins by HPLC analysis. Type of series: ADME, cell-free. To be noted: read-out: Stability.
Series [2] in a line: Metabolic stability in 80% human plasma assessed as compound remaining at 5 mg/ml at 60 mins by HPLC analysis. The series is classed as ADME, cell-free. Particulars: read-out: Stability.
Series [3] in a line: Stability in simulated gastric fluid at pH 2 assessed as compound remaining measured at 5 mg/ml at 2 hrs by HPLC analysis. Type of series: ADME. Particulars: read-out: Stability.
Series [4] in a line: Metabolic stability in 80% human plasma assessed as compound remaining at 5 mg/ml at 120 mins by HPLC analysis. Type of series: ADME, cell-free. To be noted: read-out: Stability.
A short description of series [5]: Stability in simulated gastric fluid at pH 2 assessed as compound remaining measured at 5 mg/ml at 8 hrs by HPLC analysis. Type of series: ADME. Particulars: read-out: Stability.
Series [6] in a line: Stability in simulated gastric fluid at pH 2 assessed as compound remaining measured at 5 mg/ml at 12 hrs by HPLC analysis. The series is classed as ADME. To be noted: read-out: Stability.
Series [7] is described as follows: Stability in simulated gastric fluid at pH 2 assessed as compound remaining measured at 5 mg/ml at 5 hrs by HPLC analysis. Type of series: ADME. To be noted: read-out: Stability.
The target in series [8] is T1, Inhibitor of nuclear factor kappa-B kinase subunit beta (Homo sapiens, UniProt O14920).
T1 sequence (O14920 whole entry): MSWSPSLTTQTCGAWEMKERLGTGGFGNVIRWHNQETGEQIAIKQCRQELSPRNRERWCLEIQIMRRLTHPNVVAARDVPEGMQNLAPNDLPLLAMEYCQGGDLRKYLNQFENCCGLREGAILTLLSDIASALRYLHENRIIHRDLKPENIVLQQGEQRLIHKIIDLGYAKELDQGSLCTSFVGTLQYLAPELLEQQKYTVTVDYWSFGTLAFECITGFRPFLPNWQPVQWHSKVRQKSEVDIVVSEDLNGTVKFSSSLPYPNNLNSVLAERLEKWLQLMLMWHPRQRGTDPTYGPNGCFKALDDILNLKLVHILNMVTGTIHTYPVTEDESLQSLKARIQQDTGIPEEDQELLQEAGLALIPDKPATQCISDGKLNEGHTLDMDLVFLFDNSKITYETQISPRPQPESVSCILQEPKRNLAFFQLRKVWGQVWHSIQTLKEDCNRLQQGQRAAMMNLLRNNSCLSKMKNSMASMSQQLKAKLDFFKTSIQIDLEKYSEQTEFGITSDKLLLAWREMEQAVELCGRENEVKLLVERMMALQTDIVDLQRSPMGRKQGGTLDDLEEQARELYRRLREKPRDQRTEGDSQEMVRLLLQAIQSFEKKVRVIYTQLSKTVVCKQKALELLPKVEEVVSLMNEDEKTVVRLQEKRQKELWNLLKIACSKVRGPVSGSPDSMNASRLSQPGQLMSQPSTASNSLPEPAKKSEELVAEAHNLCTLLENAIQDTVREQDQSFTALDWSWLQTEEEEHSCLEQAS
The series is described as follows: Inhibition of phosphorylation of human recombinant Flag-tagged IKKbeta expressed in Sf21 cells after 1 hr by Kinase-Glo luminescent kinase assay.

Series [9] can be described thus: Metabolic stability in 80% human plasma assessed as compound remaining at 5 mg/ml at 15 mins by HPLC analysis. The series is classed as ADME, cell-free. Particulars: read-out: Stability.
Series [10] has as its target T2, Inhibitor of nuclear factor kappa-B kinase subunit beta (Homo sapiens) (UniProt O14920).
T2 sequence (whole entry): T1 sequence (O14920 whole entry)
Particulars: A549, 0.5 to 1 uM.
Description: Inhibition of TNFalpha-induced IKKbeta-mediated IkappaB degradation in human A549 cells compound treated for 8 hrs at 0.5 to 1 uM followed by TNFalpha stimulation measured after 30 mins by Western blot analysis relative to control

Calls of active or inactive are those of the source. No cut-off for these calls is given here. Where only a bound is given, the exact number is not on record here.

`CC(C)=CC(=O)O[C@@H]1CC(C)(C)C[C@H]2C3=CC[C@@H]4[C@@]5(C)CC[C@H](OC(=O)c6cccc(F)c6)C(C)(C)[C@@H]5CC[C@@]4(C)[C@]3(C)CC[C@@]12C(=O)O` gave an IC50 in the series with A549 of 6860 nM.

In the case of `CC(C)=CC(=O)O[C@@H]1CC(C)(C)C[C@H]2C3=CC[C@@H]4[C@@]5(C)CC[C@H](OC(=O)c6ccc(Cl)cc6)C(C)(C)[C@@H]5CC[C@@]4(C)[C@]3(C)CC[C@@]12C(=O)O`, in series [1], the remaining at 0.5 h, 5 mg/ml is 52.2%. Also, in series [2], the remaining at 1 h, 5 mg/ml is 44.3%. Further, the remaining at 2 h, 5 mg/ml in series [3] was 92.2%; in series [4], 32.3%. Moreover, the remaining at 8 h, 5 mg/ml in [5] was 80.3%. Besides, the results for the IC50 (in the series with A549; in [8]) were 1120 nM and 1540 nM, respectively. The remaining at 12 h, 5 mg/ml in series [6] was 72.8%. For the same molecule, the remaining at 5 h, 5 mg/ml in series [7] was 86.5%. Also, the remaining at 0.25 h, 5 mg/ml in series [9] came out at 70.2%.

Regarding `CC(C)=CC(=O)O[C@@H]1CC(C)(C)C[C@H]2C3=CC[C@@H]4[C@@]5(C)CC[C@H](OC(=O)C(C)C)C(C)(C)[C@@H]5CC[C@@]4(C)[C@]3(C)CC[C@@]12C(=O)O`, the IC50 in the series on A549 is 2560 nM.

Turning to `C/C=C(/C)C(=O)O[C@@H]1CC(C)(C)C[C@H]2C3=CC[C@@H]4[C@@]5(C)CC[C@H](OC(=O)c6ccc(Cl)cc6)C(C)(C)[C@@H]5CC[C@@]4(C)[C@]3(C)CC[C@@]12C(=O)O`, the IC50 with A549 amounted to 1320 nM.

As for `C/C=C(/C)C(=O)O[C@@H]1CC(C)(C)C[C@H]2C3=CC[C@@H]4[C@@]5(C)CCC(=O)C(C)(C)[C@@H]5CC[C@@]4(C)[C@]3(C)CC[C@@]12C(=O)O` [LANTADENE A], the IC50 in the series with A549 was 2840 nM.

As to `C/C=C(/C)C(=O)O[C@@H]1CC(C)(C)C[C@H]2C3=CC[C@@H]4[C@@]5(C)CC[C@H](OC(=O)c6cccc(OC)c6)C(C)(C)[C@@H]5CC[C@@]4(C)[C@]3(C)CC[C@@]12C(=O)O`, the IC50 in the series on A549 was 1840 nM.

As for `C/C=C(/C)C(=O)O[C@@H]1CC(C)(C)C[C@H]2C3=CC[C@@H]4[C@@]5(C)CC[C@H](O)C(C)(C)[C@@H]5CC[C@@]4(C)[C@]3(C)CC[C@@]12C(=O)O` [Reduced Lantadene A], the IC50 came to 790 nM with A549 and 2620 nM in [8].

Regarding `CCCC(=O)O[C@@H]1CC(C)(C)C[C@H]2C3=CC[C@@H]4[C@@]5(C)CCC(=O)C(C)(C)[C@@H]5CC[C@@]4(C)[C@]3(C)CC[C@@]12C(=O)O`, the IC50 in the series with A549 is over 10000 nM.

Regarding `C/C=C(/C)C(=O)O[C@@H]1CC(C)(C)C[C@H]2C3=CC[C@@H]4[C@@]5(C)CC[C@H](OC(=O)C(C)C)C(C)(C)[C@@H]5CC[C@@]4(C)[C@]3(C)CC[C@@]12C(=O)O`, the IC50 with A549 was over 10000 nM.

For the molecule `CC1(C)C[C@@H](O)[C@]2(C(=O)O)CC[C@]3(C)C(=CC[C@@H]4[C@@]5(C)CCC(=O)C(C)(C)[C@@H]5CC[C@]43C)[C@@H]2C1`, in the series on A549, the IC50 was over 10000 nM.

`COc1cccc(C(=O)O[C@H]2CC[C@]3(C)[C@H]4CC=C5[C@@H]6CC(C)(C)C[C@@H](OC(=O)C=C(C)C)[C@]6(C(=O)O)CC[C@@]5(C)[C@]4(C)CC[C@H]3C2(C)C)c1`: the remaining at 0.5 h, 5 mg/ml in [1] was 53.2%. For the same molecule, the remaining at 1 h, 5 mg/ml in [2] came to 46.7%. Further, the remaining at 2 h, 5 mg/ml in series [3] was 93%; in series [4] it was 35.3%. The remaining at 8 h, 5 mg/ml in [5] was 83.3%. Also, the IC50 was found to be 980 nM with A549 and 1360 nM in series [8]. For the same molecule, in series [6], the remaining at 12 h, 5 mg/ml was 77.2%. For the same molecule, in [7], the remaining at 5 h, 5 mg/ml is 88.2%. Also, the inhibition result in series [10] is “Active”. For the same molecule, the remaining at 0.25 h, 5 mg/ml in series [9] was found to be 70.4%.

`CC(C)=CC(=O)O[C@@H]1CC(C)(C)C[C@H]2C3=CC[C@@H]4[C@@]5(C)CCC(=O)C(C)(C)[C@@H]5CC[C@@]4(C)[C@]3(C)CC[C@@]12C(=O)O` showed an IC50 with A549 of 1190 nM.

`CC(C)=CC(=O)O[C@@H]1CC(C)(C)C[C@H]2C3=CC[C@@H]4[C@@]5(C)CC[C@H](OC(=O)c6ccccc6F)C(C)(C)[C@@H]5CC[C@@]4(C)[C@]3(C)CC[C@@]12C(=O)O` had an IC50 in the series on A549 of 1960 nM.

In the series on A549, `C/C=C(/C)C(=O)O[C@@H]1CC(C)(C)C[C@H]2C3=CC[C@@H]4[C@@]5(C)CC[C@H](OC(=O)c6cccc(F)c6)C(C)(C)[C@@H]5CC[C@@]4(C)[C@]3(C)CC[C@@]12C(=O)O` yielded an IC50 of over 10000 nM.

As to `C/C=C(/C)C(=O)O[C@@H]1CC(C)(C)C[C@H]2C3=CC[C@@H]4[C@@]5(C)CC[C@H](OC(=O)CCC)C(C)(C)[C@@H]5CC[C@@]4(C)[C@]3(C)CC[C@@]12C(=O)O`, the IC50 with A549 was over 10000 nM.

`CC(C)=CC(=O)O[C@@H]1CC(C)(C)C[C@H]2C3=CC[C@@H]4[C@@]5(C)CC[C@H](O)C(C)(C)[C@@H]5CC[C@@]4(C)[C@]3(C)CC[C@@]12C(=O)O` [Reduced Lantadene B]: the IC50 with A549 came to 430 nM; in series [8] (sf21), 4240 nM.

`C/C=C(/C)C(=O)O[C@@H]1CC(C)(C)C[C@H]2C3=CC[C@@H]4[C@@]5(C)CC[C@H](OC(=O)c6ccccc6F)C(C)(C)[C@@H]5CC[C@@]4(C)[C@]3(C)CC[C@@]12C(=O)O` showed an IC50 in the series on A549 of 2040 nM.

With `CC(C)C(=O)O[C@@H]1CC(C)(C)C[C@H]2C3=CC[C@@H]4[C@@]5(C)CCC(=O)C(C)(C)[C@@H]5CC[C@@]4(C)[C@]3(C)CC[C@@]12C(=O)O`, the IC50 in the series with A549 was over 10000 nM.

In the case of `CCCC(=O)O[C@H]1CC[C@]2(C)[C@H]3CC=C4[C@@H]5CC(C)(C)C[C@@H](OC(=O)C=C(C)C)[C@]5(C(=O)O)CC[C@@]4(C)[C@]3(C)CC[C@H]2C1(C)C`, the IC50 with A549 is over 10000 nM.
